Assay results published in ChEMBL document CHEMBL5143648, “Exploration of inhibitors of the bacterial LexA repressor-protease” (Bioorg Med Chem Lett, 2022).

assay: Inhibition of N-terminal tetra-cysteine tagged LexA repressor (unknown origin) assessed as reduction in RecA-mediated autoproteolysis by measuring release of fluorophore-labeled peptide using FlAsH-EDT2 as fluorescent substrate by FlAsH-LexA assay; design: species or system Bacteria

| SMILES | IC50 [µM] |
| --- | --- |
| Nc1c(C(=O)Nc2ccccc2)nnn1CC(=O)Nc1c(Cl)cc(Cl)cc1Cl | > 250 |
| Nc1c(C(=O)Nc2ccccc2)nnn1CC(=O)Nc1ccc(O)cc1 | > 250 |
| Nc1c(C(=O)Nc2ccccc2)nnn1CC(=O)Nc1ccc(C(=O)C(F)(F)F)cc1 | > 250 |
| COC(=O)c1ccc(NC(=O)Cn2nnc(C(=O)Nc3ccccc3)c2N)cc1 | 75 |
| Nc1c(C(=O)Nc2ccccc2)nnn1CC(=O)NC1CCCCCC1 | > 250 |
| Cc1ccc(/N=C2\NC(=O)C(N)=C2C(=O)Nc2ccccc2)cc1 | > 250 |
| Cc1ccccc1NC(=O)Cn1nnc(C(=O)Nc2ccccc2)c1N | > 250 |
| Cc1ccc(NC(=O)Cn2nnc(C(=O)Nc3ccccc3)c2N)c(C)c1 | > 250 |

The next lines start with the values.

| IC50 [µM] | SMILES |
| --- | --- |
| > 250 | Nc1ccc(NC(=O)Cn2nnc(C(=O)Nc3ccccc3)c2N)cc1 |
| 107 | Cc1ccc(NC(=O)Cn2nnc(C(=O)Nc3ccccc3)c2N)cc1 |
| 48 | CCOc1ccc(NC(=O)Cn2nnc(C(=O)Nc3ccccc3)c2N)cc1 |
| > 250 | Nc1c(C(=O)Nc2ccccc2)nnn1CC(=O)Nc1ccc(Cl)cc1 |
